Molecular target: KRas G12D/Q61H double mutant (Homo sapiens (Human), UniProt P01116, G12D/Q61H)
Test: Ras GTP binding domain inhibition assay (labeled GTP)
Settings: 20 μM compound; read-out: % Inhibition at 20 μM KRas G12D Q61H
How it was run: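 Ni-plate capture of His-KRas (3-10 μg/ml, o/n, 4° C); Tris pH 7.5/MgCl2/DTT buffer, 1% DMSO. Cpd 20 μM or titration, 3 h RT. Cy3/Cy5-GTP 45 min RT, wash, fluorescence of bound GTP.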

KRas G12D/Q61H double mutant, sequence (P01116-2 other isoform, or with tags, fused parts or gaps G12D/Q61H): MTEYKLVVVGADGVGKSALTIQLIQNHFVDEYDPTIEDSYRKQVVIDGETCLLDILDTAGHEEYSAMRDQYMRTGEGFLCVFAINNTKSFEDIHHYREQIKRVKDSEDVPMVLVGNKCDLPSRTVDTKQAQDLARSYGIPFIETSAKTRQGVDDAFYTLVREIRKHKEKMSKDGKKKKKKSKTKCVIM

| SMILES | inhibition at 20 µM |
| --- | --- |
| N#Cc1ccc(C2(C(=O)Nc3ccnc(-c4ccccn4)n3)CCCC2)cc1 | 25 to 50% |
| O=C(c1csc2c(O)nc(-c3ccccn3)nc12)N1CCNC(c2ccccc2)C1 (stereo not shown) | 25 to 50% |
| Cc1nccc(-c2nc3cc(F)ccc3c(=O)[nH]2)n1 | 76 to 100% |
| O=C(CCc1nc2ccccc2[nH]1)Nc1nnc(-c2ccccn2)[nH]1 | 51 to 75% |
| Cc1nc(-c2ccccn2)[nH]c(=O)c1CC(=O)NC1CCCCCCC1 | 51 to 75% |
| O=c1[nH]c(-c2cc(OCC(F)F)ccn2)nc2cc(F)ccc12 | 51 to 75% |
| C=CCCOC(C)C(=O)Nc1nnc(-c2ccccn2)[nH]1 (stereo not shown) | 25 to 50% |
| COc1ccccc1CC(=O)Nc1nnc(-c2ccccn2)[nH]1 | 25 to 50% |
| c1ccc(-c2csc3nc(-c4ccccn4)nc(NCCN4CCOCC4)c23)cc1 | 25 to 50% |
| COc1cc(CC(=O)Nc2nnc(-c3ccccn3)[nH]2)cc(OC)c1OC | 25 to 50% |
| O=C(Nc1nnc(-c2ccccn2)[nH]1)c1ccc(Cn2ccccc2=O)o1 | 25 to 50% |
| O=C(Nc1nnc(-c2ccccn2)[nH]1)c1ccc(Cn2cncn2)cc1 | 25 to 50% |
| CCCCN(C(=O)c1nn(-c2ccccc2)nc1C)c1ccccc1 | 25 to 50% |
| Cc1nc(CC(=O)Nc2nnc(-c3ccccn3)[nH]2)cs1 | 25 to 50% |
| O=c1[nH]c(-c2ccccn2)nc2ccccc12 | 25 to 50% |
| O=C(Nc1nnc(-c2ccccn2)[nH]1)c1ccc(N2CCCCC2=O)cc1 | 25 to 50% |
| O=C(CCN1C(=O)CSc2ccccc21)Nc1nnc(-c2ccccn2)[nH]1 | 25 to 50% |
| CC(=O)N1CCC(C(=O)Nc2nnc(-c3ccccn3)[nH]2)CC1 | 25 to 50% |
| O=C(Nc1nnc(-c2ccccn2)[nH]1)C1CCS(=O)(=O)C1 (stereo not shown) | 25 to 50% |
| CC(C)N1CC(C(=O)Nc2nnc(-c3ccccn3)[nH]2)CC1=O (stereo not shown) | 25 to 50% |
| O=C(Nc1nnc(-c2ccccn2)[nH]1)C1CC(c2ccccc2)C1 (stereo not shown) | 25 to 50% |

| SMILES | inhibition at 20 µM |
| --- | --- |
| Cc1cnn(CCC(=O)Nc2nnc(-c3ccccn3)[nH]2)c1 | 25 to 50% |
| CC(C)CCS(=O)(=O)CC(=O)Nc1nnc(-c2ccccn2)[nH]1 | 25 to 50% |
| O=C(CCc1ccccc1F)Nc1nnc(-c2ccccn2)[nH]1 | 25 to 50% |
| O=C(Nc1nnc(-c2ccccn2)[nH]1)C1CC(=O)N(C2CCCC2)C1 (stereo not shown) | 25 to 50% |
| Clc1ccccc1-c1nnc(CN2CCCc3ccccc32)o1 | 25 to 50% |
| CC(c1nc(C(C)(C)C)no1)N(C)CC12CC3CC(CC(C3)C1)C2 (stereo not shown) | 25 to 50% |
| O=C1COc2cc(C(=O)Nc3nc(-c4ccccn4)cs3)ccc2N1 | 25 to 50% |
| COCCn1c(SCc2csc(-c3ccccc3)n2)nc2ccccc21 | 25 to 50% |
| CCc1ccc(OCC(=O)Nc2nnc(-c3ccccn3)[nH]2)cc1 | 25 to 50% |
| O=C(COCC1CC1)Nc1nnc(-c2ccccn2)[nH]1 | 25 to 50% |
| Cc1c(C(=O)Nc2nc(-c3ccccn3)cs2)oc2ccccc12 | 25 to 50% |
| CCCN(CC1CC1)S(=O)(=O)Oc1cccc(C(=O)NCc2ccccc2)c1 | 25 to 50% |
| O=C(c1cc(-c2ccccc2)on1)N(Cc1ccco1)C1CCCC1 | 25 to 50% |
| Cc1noc(CN(Cc2ccc(C#N)cc2)Cc2cccc(F)c2)n1 | 1 to 25% |
| Fc1ccccc1-c1csc(C2CN(Cc3ccccc3)CCO2)n1 (stereo not shown) | 1 to 25% |
| O=C(CCN1C(=O)NC2(CCCCC2)C1=O)Nc1nnc(-c2ccccn2)[nH]1 | 1 to 25% |
| CCOC(=O)c1sc(N(C2CC2)S(=O)(=O)c2ccc(OC)c(C)c2)nc1C | 1 to 25% |
| CCOCc1c(C(=O)N(Cc2cccs2)Cc2ccccc2OC)oc2ccccc12 | 1 to 25% |
| Cc1nc(CNc2ccccc2Oc2cccc(F)c2)no1 | 1 to 25% |
| CC(=O)Nc1ccc(-c2nc(NC3CCCCC3)sc2C)cc1 | 1 to 25% |
| Cc1nc(-c2ccccn2)sc1C(=O)NCCNc1ncccn1 | 1 to 25% |

| SMILES | inhibition at 20 µM |
| --- | --- |
| CC1(C)NC(=O)N(CC(=O)Nc2nc(-c3ccccn3)cs2)C1=O | 1 to 25% |
| Cc1cccc(CN(Cc2ccccn2)Cc2ncc(C(C)(C)C)o2)c1 | 1 to 25% |
| CC(C)Cc1cc(C(=O)Nc2cc(-c3cccnc3)n[nH]2)[nH]n1 | 1 to 25% |
| COc1ccccc1CN(Cc1cccs1)C(=O)c1ccc(-c2nnn[nH]2)cc1 | 1 to 25% |
| Cc1ccc(C)c(OCC(O)CN(c2nccs2)S(=O)(=O)c2ccccc2)c1 (stereo not shown) | 1 to 25% |
| Cc1ccc(CN(C(=O)c2cc(-c3ccccc3Cl)[nH]n2)C2CC2)o1 | 1 to 25% |
| CN(Cc1ccco1)C(=O)c1ccc(COc2ccccc2)o1 | 1 to 25% |
| N#Cc1ccccc1S(=O)(=O)NC(c1ccccc1)c1ccccn1 (stereo not shown) | 1 to 25% |
| CC(C)COC(C)c1noc(CN(Cc2ccccc2O)C(C)c2ccccc2)n1 (stereo not shown) | 1 to 25% |
| CCOc1ccc(NC(=O)CN(C)Cc2coc(-c3ccc(C)cc3C)n2)cc1OCC | 1 to 25% |
| O=C(c1cc(-c2ccc(F)cc2)[nH]n1)N(Cc1ccco1)C1CCCC1 | 1 to 25% |
| CC(C)N(Cc1ccccn1)Cc1nc2ccccc2n1C(F)F | 1 to 25% |
| Cc1c(C(=O)N(c2ccccc2)C(C)C)cnn1-c1ccccn1 | 1 to 25% |
| Cc1csc(C2CN(Cc3ccn(C)c(=O)c3)CCO2)n1 (stereo not shown) | 1 to 25% |
| O=c1[nH]c(-c2ccnc(Oc3ccccc3Cl)c2)nc2ccsc12 | 1 to 25% |
| CN(Cc1ccc(Br)cc1)Cc1ccc(C(=O)NCC(F)(F)F)cc1 | 1 to 25% |
| O=C(Nc1nc(-c2ccccn2)cs1)c1cc(F)cc(F)c1 | 1 to 25% |
| CS(=O)(=O)Nc1nc(-c2ccccn2)nc2scc(-c3ccccc3)c12 | 1 to 25% |
| COC(=O)c1ccc(C(=O)N2Cc3ccccc3C(c3ccccc3)C2)nc1 (stereo not shown) | 1 to 25% |

Second part, the molecule after the results:

| inhibition at 20 µM | SMILES |
| --- | --- |
| 25 to 50% | O=C(c1ccccc1)N1CCCc2c(O)nc(-c3ccccn3)nc21 |
| 25 to 50% | Nc1nc(O)c2scc(C(=O)N3CCN(c4ccccc4)CC3)c2n1 |
| 25 to 50% | Nc1nc(O)c2scc(C(=O)N3CCN(c4ccncc4)CC3)c2n1 |
| 1 to 25% | CC1(N)CCN(C(=O)c2csc3c(O)nc(N)nc23)CC1 |
| 1 to 25% | COCCOCCN(C)C(=O)c1csc2c(O)nc(N)nc12 |
| 25 to 50% | COc1ccc(N2CCN(C(=O)c3csc4c(O)nc(-c5ccccn5)nc34)CC2)cc1 |
| 25 to 50% | O=C(c1csc2c(O)nc(-c3ccccn3)nc12)N1CCN(c2cccc(O)c2)CC1 |
| 25 to 50% | O=C(c1csc2c(O)nc(-c3ccccn3)nc12)N1CCN(c2ccc(O)cc2)CC1 |
| 25 to 50% | O=C(c1csc2c(O)nc(-c3ccccn3)nc12)N1CCN(c2ccc(Cl)cc2)CC1 |
| 25 to 50% | COc1cc(F)ccc1N1CCN(C(=O)c2csc3c(O)nc(-c4ccccn4)nc23)CC1 |
| 25 to 50% | COc1ccc(CN2CCN(C(=O)c3csc4c(O)nc(-c5ccccn5)nc34)CC2)cc1OC |
| 25 to 50% | CC1CN(Cc2ccccc2)CCN1C(=O)c1csc2c(O)nc(-c3ccccn3)nc12 (stereo not shown) |
| 51 to 75% | O=C(c1csc2c(O)nc(-c3ccccn3)nc12)N1CCOC(c2cccc(O)c2)C1 (stereo not shown) |
| 25 to 50% | O=C(c1csc2c(O)nc(-c3ccccn3)nc12)N1CCNC(c2cccc(Cl)c2)C1 (stereo not shown) |
| 51 to 75% | O=C(Nc1nnc(-c2ccccn2)[nH]1)C1CCCN(c2ncccc2C(F)(F)F)C1 (stereo not shown) |
| 25 to 50% | COCC(O)CN1CCC(Nc2nc(-c3ccccn3)nc3c2CCC3)CC1 (stereo not shown) |
| 25 to 50% | Cc1cc(O)nc(-c2ccccn2)n1 |
| 25 to 50% | OC[C@H]1C=C[C@@H](Nc2nc(-c3ccccn3)nc3c2CCC3)C1 |
| 25 to 50% | O=C(Nc1nnc(-c2ccccn2)[nH]1)C(F)(F)c1ccccc1 |

| inhibition at 20 µM | SMILES |
| --- | --- |
| 25 to 50% | CCN(CCC(=O)OC)c1nc(-c2ccccn2)nc2c1CCC2 |
| 1 to 25% | CCOC(=O)CCN(Cc1cccnc1)c1nc(C(F)(F)F)ccc1C#N |
| 1 to 25% | CC(=O)Nc1ccc(C(F)(F)F)cc1NCc1nc(C)no1 |
| 1 to 25% | Cc1cccc(OCCn2c(CN3CCCCC3)nc3ccccc32)c1C |
| 1 to 25% | CCCCCCNC(=O)c1cc(S(=O)(=O)N(C)C)ccc1N1CCOCC1 |
| 1 to 25% | Cc1ccc(-c2nnc(C(C)N3CCCc4ccccc43)o2)cc1 (stereo not shown) |
| 1 to 25% | CC(c1nc2ccccc2n1CCOc1ccccc1)N1CCCCC1 (stereo not shown) |
| 1 to 25% | CCc1cc(NNC(=O)C2CC2)nc(-c2ccccn2)n1 |
| 1 to 25% | CCCn1c(CNc2ccccc2OCCOC)nc2cc(S(=O)(=O)N(C)C)ccc21 |
| 1 to 25% | O=C(c1nccc2ccccc12)N(Cc1nccn1C(F)F)C1CC1 |
| 1 to 25% | COc1cccc(OCCn2c(CN3CCOCC3)nc3ccccc32)c1 |
| 1 to 25% | CN(Cc1ccc(C(F)(F)F)cc1)Cc1cc([N+](=O)[O-])cc2c1OCOC2 |
| 1 to 25% | CN(Cc1nnc(-c2ccccc2Cl)o1)Cc1ccccc1N1CCCC1 |
| 1 to 25% | COC(=O)CCN(Cc1cc(Br)cc(C(F)(F)F)c1)C1CCOCC1 |
| 1 to 25% | Cc1noc(CN2CCOC(c3nc(-c4ccccc4)cs3)C2)n1 (stereo not shown) |
| 1 to 25% | CN(C)C(=O)CCN1CCOC(c2nc(-c3ccccc3)cs2)C1 (stereo not shown) |
| 1 to 25% | Cc1cccc(OC2CCN(c3nc(-c4ccccn4)nc4c3CCC4)CC2)n1 |
| 1 to 25% | CN(Cc1nnc(-c2ccccc2)o1)Cc1ccccc1N1CCCC1 |
| 1 to 25% | CC(c1nc(N)nc(N(C)C)n1)N1CCN(c2cccc(C(F)(F)F)c2)CC1 (stereo not shown) |

Same assay, conditions: 20 μM; read-out: KRas G12D Q61H % Inh.

| SMILES | inhibition at 20 µM |
| --- | --- |
| N#Cc1ccc(OCC(=O)Nc2nnc(-c3ccccn3)[nH]2)cc1 | 51 to 75% |
| O=C(Cc1ccccc1F)Nc1nnc(-c2ccccn2)[nH]1 | 51 to 75% |
| CC(C(=O)Nc1nnc(-c2ccccn2)[nH]1)n1cnc2ccccc21 (stereo not shown) | 51 to 75% |
| O=C(Nc1nnc(-c2ccccn2)[nH]1)C1CCCN(C(=O)c2cccs2)C1 (stereo not shown) | 51 to 75% |

— patent publication US10940139B2, “Compounds that interact with the Ras superfamily for the treatment of cancers, inflammatory diseases, rasopathies, and fibrotic disease” (Shy Therapeutics LLC, priority 2017, dated 2021)
